According to the NIST ThermoML archive (doi:10.1021/acs.jced.9b00074):
± gives the expanded uncertainty stated by the source.

Experiment: xn = mol fraction of the nth substance listed
Details: 100 kPa, Liquid; for viscosity: Falling or rolling sphere viscometry; for mass density: Vibrating tube method

OC1CCCC1 [cyclopentanol] + C1C[C@@H]2[C@H]3CC[C@H](C3)[C@@H]2C1
Details	mass density, 293.15 K [kg/m3]	mass density, 298.15 K [kg/m3]	mass density, 303.15 K [kg/m3]	mass density, 308.15 K [kg/m3]	viscosity, 293.15 K [mPa·s]	viscosity, 298.15 K [mPa·s]	viscosity, 303.15 K [mPa·s]	viscosity, 308.15 K [mPa·s]	viscosity, 313.15 K [mPa·s]
x1 = 0.101	935.59 ± 0.66	931.59 ± 0.66	927.56 ± 0.65	923.52 ± 0.65	3.091 ± 0.069	2.829 ± 0.063	2.564 ± 0.057	2.329 ± 0.052	2.122 ± 0.047
x1 = 0.201	935.84 ± 0.63	931.81 ± 0.63	927.75 ± 0.63	923.67 ± 0.62	3.26 ± 0.072	2.917 ± 0.064	2.623 ± 0.058	2.376 ± 0.052	2.156 ± 0.048
x1 = 0.296	936.28 ± 0.61	932.23 ± 0.61	928.14 ± 0.61	924.03 ± 0.6	3.471 ± 0.076	3.093 ± 0.068	2.774 ± 0.061	2.499 ± 0.055	2.261 ± 0.05
x1 = 0.3962	937.08 ± 0.59	932.99 ± 0.59	928.88 ± 0.59	924.74 ± 0.59	3.794 ± 0.083	3.355 ± 0.073	2.987 ± 0.065	2.674 ± 0.058	2.404 ± 0.052
x1 = 0.5016	938.1 ± 0.58	934 ± 0.58	929.87 ± 0.58	925.71 ± 0.58	4.304 ± 0.093	3.762 ± 0.081	3.316 ± 0.072	2.941 ± 0.064	2.62 ± 0.057
x1 = 0.6017	939.39 ± 0.58	935.27 ± 0.57	931.12 ± 0.57	926.94 ± 0.57	5.009 ± 0.11	4.32 ± 0.093	3.761 ± 0.081	3.298 ± 0.071	2.908 ± 0.062
x1 = 0.7011	940.96 ± 0.57	936.86 ± 0.57	932.71 ± 0.57	928.53 ± 0.57	5.976 ± 0.13	5.083 ± 0.11	4.367 ± 0.093	3.78 ± 0.081	3.296 ± 0.071
x1 = 0.7968	942.64 ± 0.57	938.57 ± 0.57	934.45 ± 0.57	930.28 ± 0.56	7.24 ± 0.15	6.076 ± 0.13	5.154 ± 0.11	4.407 ± 0.094	3.796 ± 0.081
x1 = 0.9005	944.8 ± 0.57	940.78 ± 0.57	936.7 ± 0.57	932.57 ± 0.56	9.125 ± 0.19	7.555 ± 0.16	6.316 ± 0.13	5.324 ± 0.11	4.527 ± 0.096
